Assay results as given in US10765675B2, “Compositions and methods for treating Ewing family tumors” (priority 2015, dated 2020).
pEC50: −log10 of the molar value. Counter-ions that a name gives are not always drawn.

Legend:
TC-71 cells = test: cells; settings: Homo sapiens, TC-71, 24 h, read-out: EC50 (concentration of drug that inhibits growth of the tumor cells by 50% as compared to vehicle-treated control)
Text: (§1) The combination index (CI) accounts for the dose response of single drugs to determine the combination effect. […] Enzyme Regul. 22:27-55. The equation for calculating CI is as follows: […]

TC-32 cells = test: cells; settings: Homo sapiens, TC-32, 24 h, read-out: EC50 (concentration of drug that inhibits growth of the tumor cells by 50% as compared to vehicle-treated control)
Text: as §1

[1] = metformin 500-1000 mg/day; cited from earlier work
MB231-Bo cancer cells = settings: same doses as tested on TC-32 and TC-71 cells
Description: (§2) The TC-32 cell line was derived from a newly diagnosed PNET patient and the TC-71 cell line was derived from a tumor recurrent after chemotherapy in a Ewing's sarcoma patient.
(§3) The cells were cultured in DMEM media supplemented with 10% FBS, 1% L-glutamate, 1% sodium pyruvate, 1% penicillin/streptomycin, and 1% non-essential amino acids in a humidified atmosphere at 37° C. and in 5% CO2. The ratio of cells to well surface and media volume was kept constant in all experiments.
(§4) Treated cells were imaged with an IVIS200 system (Xenogen Corporation, Alameda, Calif.) using the bioluminescent imaging function. An average of three kinetic bioluminescent acquisitions was obtained within 5 min Regions of interest were automatically drawn over wells and quantified with Living Image Software version 2.50.1. Data was analyzed based on total photon flux emission minus the background photon flux of blank wells. Three separate experiments were performed, with six replicate wells for each data point.

3T3 fibroblast cells = settings: same doses as tested on TC-32 and TC-71 cells
Description: as §2, §3, §4

[2] = tested on: DNA damage and DNA repair pathway genes in TC-32 cells; settings: 12 h
Text: (§5) Housekeeping genes were included on the array to normalize RNA amounts.

[3] = tested on: DNA damage and DNA repair pathway genes in TC-71 cells; settings: 12 h
Text: as §5

sarcomas = settings: cited from earlier work

SMILES | pEC50 (TC-71 cells) | pEC50 (TC-32 cells) | Plasma levels [1] | Plasma levels, molar equivalent [1] | Cytotoxicity (MB231-Bo cancer cells) | Cytotoxicity (3T3 fibroblast cells) | Expression of 9 DNA repair genes (PRKDC, LIG4, MPG, ACTB, NEIL2, MLH1, RPA3, ATXN3, ERCC5) [2] | Expression of 11 DNA repair genes (MMS19, LIG4, B2M, RFC1, PARP2, BRCA2, TREX1, XPC, RAD23A, MUTYH, APEX1) [3] | Side-effects limiting clinical utility (sarcomas; clinical use) | Share of sarcomas that respond to the drug (sarcomas; standard systemic therapy)
CN(C)C(=N)N=C(N)N [metformin, Metformin hydrochloride] | 1.94 | 1.93 | about 1.1 mg/L | 7 µM | did not show any cytotoxicity | did not show any cytotoxicity |  |  |  | 
Cc1ccc(NC(=O)c2ccc(CN3CCN(C)CC3)cc2)cc1Nc1nccc(-c2cccnc2)n1 [imatinib, imatinib mesylate] |  |  |  |  | did not show any cytotoxicity | did not show any cytotoxicity | significantly up-regulated | significantly up-regulated |  | 
COc1cccc2c1C(=O)c1c(O)c3c(c(O)c1C2=O)C[C@@](O)(C(=O)CO)C[C@@H]3O[C@H]1C[C@H](N)[C@H](O)[C@H](C)O1 [doxorubicin] |  |  |  |  |  |  |  |  | irreversible cardiac toxicity | 20%
